From ChEMBL document CHEMBL1821596, “Isolation and structural identification of a direct-acting mutagen derived from N-nitroso-N-methylpentylamine and Fenton's reagent with copper ion” (Bioorg Med Chem, 2011)

Assays:
Assay type in all cases: toxicity, organism-based
Settings in all cases: salmonella enterica subsp. enterica serovar typhimurium
Salmonella typhimurium [1] = experiment: Mutagenic activity in Salmonella Typhimurium TA1535 at 100 uM after 2 hrs by plate-incorporating method
Salmonella typhimurium [2] = experiment: Mutagenic activity in Salmonella Typhimurium TA1535 at 100 uM after 2 hrs by plate-incorporating method in presence of Cu2+-H2O2
Salmonella typhimurium [3] = experiment: Mutagenic activity in Salmonella Typhimurium TA1535 at 100 uM after 2 hrs by plate-incorporating method in presence of Fe2+-H2O2
Salmonella typhimurium [4] = experiment: Mutagenic activity in Salmonella Typhimurium TA1535 at 100 uM after 2 hrs by plate-incorporating method in presence of Cu2+-Fe2+
Salmonella typhimurium [5] = experiment: Mutagenic activity in Salmonella Typhimurium TA1535 at 100 uM after 2 hrs by plate-incorporating method in presence of H2O2
Salmonella typhimurium [6] = experiment: Mutagenic activity in Salmonella Typhimurium TA1535 at 100 uM after 2 hrs by plate-incorporating method in presence of Fe2+-Cu2+-H2O2
Salmonella typhimurium [7] = experiment: Mutagenic activity in Salmonella Typhimurium TA1535 at 100 uM after 2 hrs by plate-incorporating method in presence of Fe2+-Cu2+-H2O2 and nitric oxide

SMILES	Activity (Salmonella typhimurium [1])	Activity (Salmonella typhimurium [2])	Activity (Salmonella typhimurium [3])	Activity (Salmonella typhimurium [4])	Activity (Salmonella typhimurium [5])	Activity (Salmonella typhimurium [6])	Activity (Salmonella typhimurium [7])
CCC1([N+](=O)[O-])CCN=[N+]1[O-] (configuration not stated)	Toxic						
CCCCCN(C)N=O		Toxic	Non-toxic	Non-toxic	Non-toxic	Toxic	Toxic
